The test deals with PC3 cells. Kind of test: NAMPT Cell Proliferation Assay. In kind it is cell-based. The note with it: Homo sapiens, PC-3, 120 h, 5 days incubation, cell viability by Cell Titer Glo. A digest of the protocol: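 Seeded at 500 cells/well in RPMI with 10% heat-inactivated FBS and left to attach overnight at 37° C, 5% CO2. Compounds were added as 10-fold dilutions […] for 5 days, then viability was read by CellTiter-Glo. IC50s came from sigmoidal fits of percent inhibition.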

Structures are written as SMILES.

Consider `Cc1ncccc1N1CC(C(=O)Nc2ccc(C3CCN(C(=O)CN4CCN(C)CC4)CC3)cc2)C1` [Example 173, N-(4-{1-[(4-methylpiperazin-1-yl)acetyl]piperidin-4-yl}phenyl)-1-(2-methylpyridin-3-yl)azetidine-3-carboxamide], for which half-maximal inhibition (IC50) required 627 nM. Compound `Cc1ncccc1N1CC(C(=O)Nc2ccc(C3CCN(C(=O)[C@@H]4CCC(=O)N4)CC3)cc2)C1` [Example 174, 1-(2-methylpyridin-3-yl)-N-{4-[1-(5-oxo-L-prolyl)piperidin-4-yl]phenyl}azetidine-3-carboxamide] yielded an IC50 of 1130 nM. For the compound `CCOCCC(=O)N1CCC(c2ccc(NC(=O)C3CN(c4cccnc4C)C3)cc2)CC1` [Example 175, N-{4-[1-(3-ethoxypropanoyl)piperidin-4-yl]phenyl}-1-(2-methylpyridin-3-yl)azetidine-3-carboxamide], it took 683 nM to reach half-maximal inhibition (IC50).

Turning to `Cc1ncccc1N1CC(C(=O)Nc2ccc(C3CCN(C(=O)CCC(C)C)CC3)cc2)C1` [Example 176, N-{4-[1-(4-methylpentanoyl)piperidin-4-yl]phenyl}-1-(2-methylpyridin-3-yl)azetidine-3-carboxamide], the IC50 was 218 nM. `Cc1ncccc1N1CC(C(=O)Nc2ccc(C3CCN(C(=O)C4(C)CCCCC4)CC3)cc2)C1` [Example 177, N-(4-{1-[(1-methylcyclohexyl)carbonyl]piperidin-4-yl}phenyl)-1-(2-methylpyridin-3-yl)azetidine-3-carboxamide] had an IC50 of 107 nM. Against the preceding compound, the IC50 is about 2-fold lower. On to `CC(=O)N1CCC(c2ccc(NC(=O)C3CN(c4cccnc4C)C3)cc2)CC1` [Example 178, N-[4-(1-acetylpiperidin-4-yl)phenyl]-1-(2-methylpyridin-3-yl)azetidine-3-carboxamide], for which the IC50 was found to be 300 nM. This IC50 is about 2.8-fold higher than that of the compound before.

With `Cc1ncccc1N1CC(C(=O)Nc2ccc(C3CCN(C(=O)CC4CCCCC4)CC3)cc2)C1` [Example 179, N-{4-[1-(cyclohexylacetyl)piperidin-4-yl]phenyl}-1-(2-methylpyridin-3-yl)azetidine-3-carboxamide], the IC50 came out at 192 nM. Against the preceding compound, the IC50 is about 1.6-fold lower.

In the case of `CC(=O)N[C@@H](CC(C)C)C(=O)N1CCC(c2ccc(NC(=O)C3CN(c4cccnc4C)C3)cc2)CC1` [Example 180, N-{4-[1-(N-acetyl-L-leucyl)piperidin-4-yl]phenyl}-1-(2-methylpyridin-3-yl)azetidine-3-carboxamide], the IC50 stood at 164 nM. On to `CCC(=O)N1CCC(c2ccc(NC(=O)C3CN(c4cccnc4C)C3)cc2)CC1` [Example 181, 1-(2-methylpyridin-3-yl)-N-[4-(1-propanoylpiperidin-4-yl)phenyl]azetidine-3-carboxamide], for which the IC50 is 238 nM. `Cc1ncccc1N1CC(C(=O)Nc2ccc(C3CCN(C(=O)CC(F)(F)F)CC3)cc2)C1` [Example 182, 1-(2-methylpyridin-3-yl)-N-{4-[1-(3,3,3-trifluoropropanoyl)piperidin-4-yl]phenyl}azetidine-3-carboxamide] displayed an IC50 of 87.9 nM. Compound `COCCOCC(=O)N1CCC(c2ccc(NC(=O)C3CN(c4cccnc4C)C3)cc2)CC1` [Example 183, N-(4-{1-[(2-methoxyethoxy)acetyl]piperidin-4-yl}phenyl)-1-(2-methylpyridin-3-yl)azetidine-3-carboxamide] registered an IC50 of 346 nM. Compound `Cc1ncccc1N1CC(C(=O)Nc2ccc(C3CCN(C(=O)CCN4CCOCC4)CC3)cc2)C1` [Example 184, 1-(2-methylpyridin-3-yl)-N-(4-{1-[3-(morpholin-4-yl)propanoyl]piperidin-4-yl}phenyl)azetidine-3-carboxamide] showed an IC50 of 604 nM. `Cc1ncccc1N1CC(C(=O)Nc2ccc(C3CCN(C(=O)C(C)(C)C)CC3)cc2)C1` [Example 185, N-{4-[1-(2,2-dimethylpropanoyl)piperidin-4-yl]phenyl}-1-(2-methylpyridin-3-yl)azetidine-3-carboxamide]: the IC50 is 74.2 nM.

These data come from US20130303509A1, “NAMPT INHIBITORS” (AbbVie Inc., priority 2012, published 2013).
